In PubChem BioAssay (NCI):
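A five-concentration, 48-hour dose response in 96-well plates underlies each endpoint, interpolated linearly between surrounding concentrations. The concentration for full growth arrest is given as TGI.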

Key:
Experiment in all cases: inhibition of tumour cell growth, NCI panel, 48 h
A498 renal = test system: A498 renal
NCI-H226 lung = test system: NCI-H226 lung
SW-620 colon = test system: SW-620 colon
NCI-H460 lung = test system: NCI-H460 lung
K-562 leukemia = test system: K-562 leukemia
HCT-15 colon = test system: HCT-15 colon
HS 578T breast = test system: HS 578T breast
MCF7 breast = test system: MCF7 breast
SK-MEL-2 melanoma = test system: SK-MEL-2 melanoma
SF-268 CNS = test system: SF-268 CNS
RPMI-8226 leukemia = test system: RPMI-8226 leukemia
SNB-75 CNS = test system: SNB-75 CNS
DU-145 prostate = test system: DU-145 prostate
SK-MEL-5 melanoma = test system: SK-MEL-5 melanoma
LOX IMVI melanoma = test system: LOX IMVI melanoma
OVCAR-5 ovarian = test system: OVCAR-5 ovarian
SK-MEL-28 melanoma = test system: SK-MEL-28 melanoma
SNB-19 CNS = test system: SNB-19 CNS
TK-10 renal = test system: TK-10 renal
KM12 colon = test system: KM12 colon
SK-OV-3 ovarian = test system: SK-OV-3 ovarian
A549 NSCLC = test system: A549 NSCLC
OVCAR-3 ovarian = test system: OVCAR-3 ovarian
SF-295 CNS = test system: SF-295 CNS
UACC-62 melanoma = test system: UACC-62 melanoma
MOLT-4 leukemia = test system: MOLT-4 leukemia
HOP-62 NSCLC = test system: HOP-62 NSCLC
M14 melanoma = test system: M14 melanoma
MALME-3M melanoma = test system: MALME-3M melanoma
786-0 renal = test system: 786-0 renal
HCT-116 colon = test system: HCT-116 colon
UACC-257 melanoma = test system: UACC-257 melanoma
EKVX NSCLC = test system: EKVX NSCLC
CCRF-CEM leukemia = test system: CCRF-CEM leukemia
SF-539 CNS = test system: SF-539 CNS
UO-31 renal = test system: UO-31 renal
SR leukemia = test system: SR leukemia
NCI-H23 lung = test system: NCI-H23 lung
MDA-MB-435 = test system: MDA-MB-435
HCC-2998 colon = test system: HCC-2998 colon
T-47D breast = test system: T-47D breast
PC-3 prostate = test system: PC-3 prostate
COLO 205 colon = test system: COLO 205 colon
RXF 393 renal = test system: RXF 393 renal
MDA-MB-231 breast = test system: MDA-MB-231 breast
U251 CNS = test system: U251 CNS
NCI/ADR-RES ovarian = test system: NCI/ADR-RES ovarian
HL-60(TB) leukemia = test system: HL-60(TB) leukemia
CAKI-1 renal = test system: CAKI-1 renal
MDA-N = test system: MDA-N
ACHN renal = test system: ACHN renal
HOP-92 NSCLC = test system: HOP-92 NSCLC
OVCAR-4 ovarian = test system: OVCAR-4 ovarian
SN12C renal = test system: SN12C renal
HT29 colon = test system: HT29 colon
IGROV1 ovarian = test system: IGROV1 ovarian
NCI-H522 lung = test system: NCI-H522 lung
OVCAR-8 ovarian = test system: OVCAR-8 ovarian

Cc1nc2ccc([N+](=O)[O-])cc2c(=O)n1C(=S)Nc1cccc(Cl)c1
TGI (A498 renal): 45.9 µM | TGI (NCI-H226 lung): 44 µM | TGI (SW-620 colon): 53.3 µM | TGI (NCI-H460 lung): 52.6 µM | TGI (K-562 leukemia): 98.5 µM | TGI (HCT-15 colon): 31 µM | TGI (HS 578T breast): 72.4 µM | TGI (MCF7 breast): 49.5 µM | TGI (SK-MEL-2 melanoma): 23.9 µM | TGI (SF-268 CNS): 42.9 µM | TGI (RPMI-8226 leukemia): 19.6 µM | TGI (SNB-75 CNS): 40.8 µM | TGI (DU-145 prostate): > 100 µM | TGI (SK-MEL-5 melanoma): 28.9 µM | TGI (LOX IMVI melanoma): 35.3 µM | TGI (OVCAR-5 ovarian): > 100 µM | TGI (SK-MEL-28 melanoma): 40.6 µM | TGI (SNB-19 CNS): > 100 µM | TGI (TK-10 renal): 67.5 µM | TGI (KM12 colon): 32.2 µM | TGI (SK-OV-3 ovarian): 71.8 µM | TGI (A549 NSCLC): 92 µM | TGI (OVCAR-3 ovarian): 58.1 µM | TGI (SF-295 CNS): 53.6 µM | TGI (UACC-62 melanoma): 29.1 µM | TGI (MOLT-4 leukemia): > 100 µM | TGI (HOP-62 NSCLC): 44.6 µM | TGI (M14 melanoma): 53.6 µM | TGI (MALME-3M melanoma): 49.1 µM | TGI (786-0 renal): 78 µM | TGI (HCT-116 colon): 36.9 µM | TGI (UACC-257 melanoma): 41.2 µM | TGI (EKVX NSCLC): > 100 µM | TGI (CCRF-CEM leukemia): 62.3 µM | TGI (SF-539 CNS): 43.1 µM | TGI (UO-31 renal): 21.5 µM | TGI (SR leukemia): > 100 µM | TGI (NCI-H23 lung): 38.1 µM | TGI (MDA-MB-435): 41.2 µM | TGI (HCC-2998 colon): 26 µM | TGI (T-47D breast): 69.6 µM | TGI (PC-3 prostate): 54.1 µM | TGI (COLO 205 colon): 31.6 µM | TGI (RXF 393 renal): 40 µM | TGI (MDA-MB-231 breast): 37.1 µM | TGI (U251 CNS): 66.9 µM | TGI (NCI/ADR-RES ovarian): 89.7 µM | TGI (HL-60(TB) leukemia): 50.6 µM | TGI (CAKI-1 renal): 56 µM | TGI (MDA-N): 39.4 µM | TGI (ACHN renal): 48.2 µM | TGI (HOP-92 NSCLC): 25.6 µM | TGI (OVCAR-4 ovarian): > 100 µM | TGI (SN12C renal): 51.4 µM | TGI (HT29 colon): 39.6 µM

CC1=C2c3ccccc3N(C(=O)/C=C/C(=O)O)[C@H]2[C@H]2C(=O)OC(=O)[C@H]2C1
TGI (A498 renal): > 10 µM | TGI (NCI-H226 lung): > 10 µM | TGI (SW-620 colon): > 10 µM | TGI (NCI-H460 lung): > 10 µM | TGI (HCT-15 colon): > 10 µM | TGI (HS 578T breast): > 10 µM | TGI (MCF7 breast): > 10 µM | TGI (SK-MEL-2 melanoma): > 10 µM | TGI (SF-268 CNS): > 10 µM | TGI (RPMI-8226 leukemia): > 10 µM | TGI (SNB-75 CNS): > 10 µM | TGI (DU-145 prostate): > 10 µM | TGI (SK-MEL-5 melanoma): > 10 µM | TGI (OVCAR-5 ovarian): > 10 µM | TGI (SK-MEL-28 melanoma): > 10 µM | TGI (SNB-19 CNS): > 10 µM | TGI (TK-10 renal): > 10 µM | TGI (KM12 colon): > 10 µM | TGI (SK-OV-3 ovarian): > 10 µM | TGI (A549 NSCLC): > 10 µM | TGI (OVCAR-3 ovarian): > 10 µM | TGI (SF-295 CNS): > 10 µM | TGI (UACC-62 melanoma): > 10 µM | TGI (MOLT-4 leukemia): > 10 µM | TGI (HOP-62 NSCLC): > 10 µM | TGI (M14 melanoma): > 10 µM | TGI (MALME-3M melanoma): > 10 µM | TGI (HCT-116 colon): > 10 µM | TGI (EKVX NSCLC): > 10 µM | TGI (CCRF-CEM leukemia): > 10 µM | TGI (SF-539 CNS): > 10 µM | TGI (UO-31 renal): > 10 µM | TGI (SR leukemia): > 10 µM | TGI (NCI-H23 lung): > 10 µM | TGI (MDA-MB-435): > 10 µM | TGI (HCC-2998 colon): > 10 µM | TGI (IGROV1 ovarian): > 10 µM | TGI (T-47D breast): > 10 µM | TGI (PC-3 prostate): > 10 µM | TGI (COLO 205 colon): > 10 µM | TGI (RXF 393 renal): > 10 µM | TGI (MDA-MB-231 breast): > 10 µM | TGI (NCI-H522 lung): > 10 µM | TGI (U251 CNS): > 10 µM | TGI (NCI/ADR-RES ovarian): > 10 µM | TGI (HL-60(TB) leukemia): > 10 µM | TGI (CAKI-1 renal): > 10 µM | TGI (MDA-N): > 10 µM | TGI (OVCAR-8 ovarian): > 10 µM | TGI (ACHN renal): > 10 µM | TGI (OVCAR-4 ovarian): > 10 µM | TGI (SN12C renal): > 10 µM | TGI (HT29 colon): > 10 µM

COc1cccc(C2c3cc4c(cc3OC(N3CCCC3)C2C)OCO4)c1OC (centres undefined)
TGI (SW-620 colon): 18.8 µM | TGI (NCI-H460 lung): 12.5 µM | TGI (K-562 leukemia): 30.5 µM | TGI (HCT-15 colon): 16.9 µM | TGI (HS 578T breast): 11.1 µM | TGI (MCF7 breast): > 100 µM | TGI (SK-MEL-2 melanoma): 17.1 µM | TGI (SF-268 CNS): 21 µM | TGI (RPMI-8226 leukemia): 13.2 µM | TGI (DU-145 prostate): 11.5 µM | TGI (SK-MEL-5 melanoma): 12.5 µM | TGI (LOX IMVI melanoma): 4.07 µM | TGI (OVCAR-5 ovarian): 17.9 µM | TGI (SNB-19 CNS): 5.33 µM | TGI (TK-10 renal): > 100 µM | TGI (KM12 colon): 15.1 µM | TGI (A549 NSCLC): 25.5 µM | TGI (OVCAR-3 ovarian): 6.7 µM | TGI (SF-295 CNS): 12.4 µM | TGI (UACC-62 melanoma): 34.5 µM | TGI (MOLT-4 leukemia): 10.7 µM | TGI (HOP-62 NSCLC): 26.7 µM | TGI (M14 melanoma): 23.8 µM | TGI (786-0 renal): 18.8 µM | TGI (HCT-116 colon): 5.99 µM | TGI (EKVX NSCLC): 97.8 µM | TGI (CCRF-CEM leukemia): 16.9 µM | TGI (SF-539 CNS): 16.2 µM | TGI (UO-31 renal): 7.51 µM | TGI (SR leukemia): 15.2 µM | TGI (MDA-MB-435): 14.3 µM | TGI (IGROV1 ovarian): 16.6 µM | TGI (T-47D breast): 39.3 µM | TGI (PC-3 prostate): 27.3 µM | TGI (COLO 205 colon): 19.4 µM | TGI (NCI-H522 lung): 25.5 µM | TGI (NCI/ADR-RES ovarian): 15 µM | TGI (CAKI-1 renal): 3.15 µM | TGI (MDA-N): 19.6 µM | TGI (OVCAR-8 ovarian): 39.8 µM | TGI (ACHN renal): 16.8 µM | TGI (SN12C renal): 14.5 µM | TGI (HT29 colon): 11.3 µM

O=C(/C=C/c1cccs1)c1ccc(Cl)cc1
TGI (A498 renal): > 100 µM | TGI (NCI-H226 lung): > 100 µM | TGI (SW-620 colon): 92.9 µM | TGI (NCI-H460 lung): > 100 µM | TGI (HCT-15 colon): > 100 µM | TGI (HS 578T breast): > 100 µM | TGI (MCF7 breast): > 100 µM | TGI (SK-MEL-2 melanoma): > 100 µM | TGI (SF-268 CNS): > 100 µM | TGI (RPMI-8226 leukemia): 57.8 µM | TGI (SNB-75 CNS): > 100 µM | TGI (DU-145 prostate): > 100 µM | TGI (SK-MEL-5 melanoma): > 100 µM | TGI (OVCAR-5 ovarian): > 100 µM | TGI (SK-MEL-28 melanoma): > 100 µM | TGI (SNB-19 CNS): > 100 µM | TGI (TK-10 renal): > 100 µM | TGI (KM12 colon): > 100 µM | TGI (SK-OV-3 ovarian): > 100 µM | TGI (A549 NSCLC): > 100 µM | TGI (SF-295 CNS): > 100 µM | TGI (UACC-62 melanoma): > 100 µM | TGI (MOLT-4 leukemia): 48.9 µM | TGI (HOP-62 NSCLC): > 100 µM | TGI (MALME-3M melanoma): > 100 µM | TGI (786-0 renal): > 100 µM | TGI (HCT-116 colon): > 100 µM | TGI (UACC-257 melanoma): > 100 µM | TGI (EKVX NSCLC): > 100 µM | TGI (CCRF-CEM leukemia): 68 µM | TGI (SF-539 CNS): > 100 µM | TGI (UO-31 renal): > 100 µM | TGI (SR leukemia): 71.1 µM | TGI (NCI-H23 lung): > 100 µM | TGI (HCC-2998 colon): > 100 µM | TGI (IGROV1 ovarian): > 100 µM | TGI (T-47D breast): > 100 µM | TGI (PC-3 prostate): > 100 µM | TGI (COLO 205 colon): > 100 µM | TGI (MDA-MB-231 breast): > 100 µM | TGI (U251 CNS): > 100 µM | TGI (NCI/ADR-RES ovarian): > 100 µM | TGI (HL-60(TB) leukemia): 70.5 µM | TGI (MDA-N): > 100 µM | TGI (OVCAR-8 ovarian): > 100 µM | TGI (ACHN renal): > 100 µM | TGI (SN12C renal): > 100 µM | TGI (HT29 colon): > 100 µM
